Data set [1] addresses T1, human TDO2 (Homo sapiens, UniProt P48775). The experiment in a line: Assay for TDO2 enzymatic activity determination. The data set is classed as biochemical. Further details: made in house. The note with it: human recombinant TDO2, L-Trp 1 mM, room temperature, one hour, kynurenine absorbance at 480 nm. Here is the method: To measure the TDO2 activity, the reaction mixture contained (final concentrations) potassium phosphate buffer (50 mM, pH 7.5), ascorbic acid (0.25 M), methylene blue (0.125 μM), catalase (40 units/mL, from bovine liver, Sigma), and human recombinant TDO2 enzyme (prepared as described in Dolusic et al. J. Med. Chem.; 2011, 54, 5320-5334; 0.9 μg) without or with the compounds of the present invention at the indicated concentrations (total volume 112.5 μL). The reaction was initiated by the addition of 37.5 μL of L-Trp (final concentration 1 mM) at room temperature. The reaction was conducted at room temperature during one hour and stopped by the addition of 30 μL of 30% (w/v) trichloroacetic acid.
To convert N-formylkynurenine into kynurenine, the reaction mixture was incubated at 65° C. for 30 min. Then 150 μL of the reaction mixture was mixed with 120 μL of 2.5% (w/v) 4-(dimethylamino)-benzaldehyde in acetic acid and incubated for 5 min at room temperature. Kynurenine concentrations were determined by measuring the absorbance at 480 nm. A standard curve was made with pure kynurenine. The TDO activity was measured as described above using ten serial concentrations of the compounds of the present invention. Data were fitted using the Prism software (GraphPad Software, Inc.).

Data set [2] concerns the target T1, human TDO2. The data set is described as follows: Cellular assay for TDO2 activity, hTDO2-overexpressing P815 cells. The data set is classed as cell-based. More on the design: expressed in transfected cells; host or cells: murine mastocytoma P815 cells. The note with it: murine mastocytoma P815 cells overexpressing hTDO2, overnight incubation, kynurenine absorbance at 480 nm. The method, then: The assay was performed in 96-well flat bottom plates seeded with murine mastocytoma P815 cells overexpressing hTDO2 (prepared as described in Pilotte et al., PNAS, 2012, 109(7), 2497-2502), at a concentration of 5×10^4 cells/well in a final volume of 200 μL. To determine TDO or IDO activity, the cells were incubated overnight at 37° C. at 5% CO2 in IMDM (Invitrogen) supplemented with 2% FBS and 2% penicillin/streptomycin in the presence of the compounds of the present invention, at different concentrations.
(§1) The plates were then centrifuged 5 min at 1000 rpm, and 100 μL of the supernatant were collected in a conical plate, 30 uL of TCA 30% were added and a further centrifugated at 3000×g for 10 minutes. 100 μL of the supernatant were collected in a flat bottomed plate and 100 μL of 2% (w/v) 4-(dimethylamino)-benzaldehyde in acetic acid and incubated for 5 min at room temperature. Kynurenine concentrations were determined by measuring the absorbance at 480 nm. A standard curve was made with pure kynurenine. The TDO activity was measured as described above using ten serial concentrations of the compounds of the present invention. Data were fitted using the Prism software (GraphPad Software, Inc.).

Data set [3] concerns the target T1, human TDO2. The experiment in a line: Cellular assay for TDO2 activity, A172 cells naturally expressing hTDO2. The format is cell-based. More on the design: expressed in transfected cells; host or cells: murine mastocytoma P815 cells. The note with it: A172 cells naturally expressing hTDO2, overnight incubation, kynurenine absorbance at 480 nm. The method, then:
The assay was performed in 96-well flat bottom plates seeded with […] A172 cells, naturally expressing hTDO2 (prepared as described in Tilman et al., Mol Cancer, 2007, 17(6), 80), at a concentration of 1.25×10^4 cells/well in a final volume of 200 μL. To determine TDO, the cells were incubated overnight at 37° C. at 5% CO2 in IMDM (Invitrogen) supplemented with 2% FBS and 2% penicillin/streptomycin in the presence of the compounds of the present invention, at different concentrations.
as §1

The target in a further data set is T2, TDO2 (Mus musculus, UniProt P48776).
T2 construct: from tissue; host or cells: live mice (whole animal; plasma tryptophan read-out)
T2 sequence (P48776 whole entry): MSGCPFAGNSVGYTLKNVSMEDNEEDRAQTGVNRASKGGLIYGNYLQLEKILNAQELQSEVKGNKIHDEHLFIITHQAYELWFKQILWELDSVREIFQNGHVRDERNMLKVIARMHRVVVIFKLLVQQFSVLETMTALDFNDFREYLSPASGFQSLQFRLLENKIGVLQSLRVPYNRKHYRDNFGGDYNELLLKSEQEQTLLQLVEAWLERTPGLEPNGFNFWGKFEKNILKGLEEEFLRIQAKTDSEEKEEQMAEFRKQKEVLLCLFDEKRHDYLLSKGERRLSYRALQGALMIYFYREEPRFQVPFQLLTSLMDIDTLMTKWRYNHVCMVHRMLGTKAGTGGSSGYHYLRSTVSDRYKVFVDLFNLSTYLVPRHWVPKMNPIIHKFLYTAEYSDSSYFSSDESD
The data set is described as follows: Pharmacodynamic assay for TDO2 in vivo activity: increase of blood tryptophan levels in mice. The note with it: for increase of circulating Tryptophan: plasma after two hours, vs vehicle; for Tryptophan concentration in plasma (average ± standard error of the mean): two hours, LC-MS-MS. Here is the method: The compounds of the present invention increase the amount of Tryptophan in mouse blood.
Briefly, mice were treated with either a suspension of one of the compounds of the present invention in 0.5% HPMC K4M/0.25% Tween 20 at different doses (30, 60 and 100 mg/kg), or with a vehicle control (0.5% HPMC K4M/0.25% Tween 20), by the oral route by gavage (dosing volume 5 mL/kg, 10 mice per group). After two hours, blood was harvested, plasma was prepared and the amount of Tryptophan present was determined by LC-MS-MS (HPLC column Unison UK-Phenyl, 75×4.6, 3 μm, flow rate 0.8 mL/min, 8 minutes gradient from 95% water+0.1% formic acid/5% Acetonitrile+0.1% formic acid to 5% water+0.1% formic acid/95% Acetonitrile+0.1% formic acid, retention time 2.4 min; API4000 MS-MS system from AB Sciex, ESI+ mode, parent ion 205.1, daughter ion 146.1).

The structures appear in SMILES notation.

T1 sequence (P48775 whole entry): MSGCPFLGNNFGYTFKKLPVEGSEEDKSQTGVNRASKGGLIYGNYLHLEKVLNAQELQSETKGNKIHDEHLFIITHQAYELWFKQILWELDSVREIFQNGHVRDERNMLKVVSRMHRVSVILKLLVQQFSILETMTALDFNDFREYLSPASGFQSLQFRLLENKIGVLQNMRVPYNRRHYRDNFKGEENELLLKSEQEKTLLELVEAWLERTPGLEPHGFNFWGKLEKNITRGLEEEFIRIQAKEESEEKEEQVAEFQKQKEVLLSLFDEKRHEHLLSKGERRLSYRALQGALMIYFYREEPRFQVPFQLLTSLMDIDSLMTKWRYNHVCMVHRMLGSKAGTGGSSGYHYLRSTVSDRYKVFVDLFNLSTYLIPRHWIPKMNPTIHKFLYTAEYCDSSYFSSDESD

Consider `NC(=O)C(O)Cn1cc(-c2c[nH]c3cc(F)ccc23)cn1` (centres unmarked) [Compound 37, 3-(4-(6-fluoro-1H-indol-3-yl)-1H-pyrazol-1-yl)-2-hydroxypropanamide], for which the IC50 on human TDO2 [1] was 1000 to 10000 nM; at human TDO2 [2], under 1000 nM.

For `Fc1ccc2c(-c3cnn(CC4CCNCC4)c3)c[nH]c2c1` [Compound 43, 6-fluoro-3-(1-(piperidin-4-ylmethyl)-1H-pyrazol-4-yl)-1H-indole], on human TDO2 [3], the IC50 was under 1000 nM.

`OC1(Cn2cc(-c3c[nH]c4cc(F)ccc34)cn2)CCOCC1` [Compound 59, 4-((4-(6-fluoro-1H-indol-3-yl)-1H-pyrazol-1-yl)methyl)tetrahydro-2H-pyran-4-ol]: the IC50 at human TDO2 [1] and against human TDO2 [2] was 1000 to 10000 nM in each case.

Compound `NC(=O)[C@H]1CC[C@H](n2cc(-c3c[nH]c4cc(F)ccc34)cn2)CC1` [Compound 67, (1R,4R)-4-(4-(6-fluoro-1H-indol-3-yl)-1H-pyrazol-1-yl)cyclohexanecarboxamide] yielded an IC50 against human TDO2 [2] of 1000 to 10000 nM.

In the case of `OC1CCC(n2cc(-c3c[nH]c4cc(F)ccc34)cn2)CC1` [Compound 68, (1R,4R)-4-(4-(6-fluoro-1H-indol-3-yl)-1H-pyrazol-1-yl)cyclohexanol], the IC50 at human TDO2 [1] is 1000 to 10000 nM; against human TDO2 [2], under 1000 nM.

For the compound `Cc1nn(C)cc1-c1c[nH]c2cc(F)ccc12` [Compound 75, 3-(1,3-dimethyl-1H-pyrazol-4-yl)-6-fluoro-1H-indole], the IC50 on human TDO2 [1] was 1000 to 10000 nM; against human TDO2 [2], under 1000 nM.

As to `Cn1ncc(-c2c[nH]c3ccccc23)c1C(F)(F)F` [Compound 77, 3-(1-methyl-5-(trifluoromethyl)-1H-pyrazol-4-yl)-1H-indole], the half-maximal inhibitory concentration (IC50) on human TDO2 [1] was 10000 to 100000 nM; against human TDO2 [2] it was 1000 to 10000 nM.

In the case of `COCC(=O)N1CCC(n2cc(-c3c[nH]c4cc(F)ccc34)cn2)CC1` [Compound 85, 1-(4-(4-(6-fluoro-1H-indol-3-yl)-1H-pyrazol-1-yl)piperidin-1-yl)-2-methoxyethanone], the IC50 against human TDO2 [3] was under 1000 nM.

`CC(=O)N1CCC(n2cc(-c3c[nH]c4cc(F)ccc34)cn2)CC1` [Compound 89, 1-(4-(4-(6-fluoro-1H-indol-3-yl)-1H-pyrazol-1-yl)piperidin-1-yl)ethanone]: the melting point was 183.2 to 184.5 °C. The “increase of circulating Tryptophan” value on TDO2 (30 mg/kg oral gavage, p<0.05) is 26%. Moreover, the “Tryptophan concentration in plasma (average ± standard error of the mean)” value at TDO2 (30 mg/kg oral gavage) stood at 25126 ng/mL. At TDO2 (60 mg/kg oral gavage), the “Tryptophan concentration in plasma (average ± standard error of the mean)” value came to 28452 ng/mL. Further, at TDO2 (100 mg/kg oral gavage, p<0.001), the “increase of circulating Tryptophan” value stood at 43%. Moreover, at TDO2 (100 mg/kg oral gavage), the “Tryptophan concentration in plasma (average ± standard error of the mean)” value turned out to be 28374 ng/mL. In addition, on TDO2 (printed 30 mg/kg (second mention, p<0.001), oral gavage), the “increase of circulating Tryptophan” value is listed as 43%.

In the case of `CS(=O)(=O)CCCC(=O)N1CCC(n2cc(-c3c[nH]c4cc(F)ccc34)cn2)CC1` [Compound 103, 1-(4-(4-(6-fluoro-1H-indol-3-yl)-1H-pyrazol-1-yl)piperidin-1-yl)-4-(methylsulfonyl)butan-1-one], the 50% inhibitory concentration (IC50) at human TDO2 [1] fell in the range of 10000 to 100000 nM; at human TDO2 [2], 1000 to 10000 nM.

For the compound `O=C(CCO)N1CCC(n2cc(-c3c[nH]c4cc(F)ccc34)cn2)CC1` [Compound 104, 1-(4-(4-(6-fluoro-1H-indol-3-yl)-1H-pyrazol-1-yl)piperidin-1-yl)-3-hydroxypropan-1-one], the IC50 at human TDO2 [1] is 1000 to 10000 nM; on human TDO2 [2] it was under 1000 nM.

As for `CS(=O)(=O)CCC(=O)N1CCC(n2cc(-c3c[nH]c4cc(F)ccc34)cn2)CC1` [Compound 105, 1-(4-(4-(6-fluoro-1H-indol-3-yl)-1H-pyrazol-1-yl)piperidin-1-yl)-3-(methylsulfonyl)propan-1-one], the IC50 on human TDO2 [1] was 1000 to 10000 nM; on human TDO2 [2], under 1000 nM.

`CS(=O)(=O)N1CCC(n2cc(-c3c[nH]c4cc(F)ccc34)cn2)CC1` [Compound 106, 6-fluoro-3-(1-(1-(methylsulfonyl)piperidin-4-yl)-1H-pyrazol-4-yl)-1H-indole]: the IC50 was 1000 to 10000 nM on human TDO2 [1], under 1000 nM against human TDO2 [3] and under 1000 nM against human TDO2 [2].

As a reminder, the IC50 is the concentration needed to halve the response being measured. As a reminder, the melting point is the temperature, or range, at which the solid turns liquid.

The values above are taken from patent US20160263087A1, “NOVEL 4-(INDOL-3-YL)-PYRAZOLE DERIVATIVES, PHARMACEUTICAL COMPOSITIONS AND METHODS FOR USE” (ITEOS THERAPEUTICS, priority 2013, published 2016).
